Source: patent US20260250289A1, “BICYCLIC HETEROCYCLES AND THEIR USE AS WRN INHIBITORS” (Novartis AG, priority 2022, published 2026)

Experiments:
SW48 cells = test: Proliferation assay SW48 (CellTiterGlo); assay type: cell-based; conditions: Homo sapiens, SW48, 96 h, SW48 colon carcinoma cells, 96 hours, CellTiterGlo; geometric mean of at least 2; read-out: Proliferation Assay SW48 GI50
Method in brief: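 SW48 cells, 2,000/well, treated after overnight seeding with eight 3-fold compound dilutions (0.1% DMSO) for 96 hours at 37° C. Viability read as ATP by CellTiterGlo luminescence, normalised to a day-0 plate and vehicle to give % growth; GI50 is geometric mean of ≥2 independent replicates.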

DLD1-WRN-KO cells = test: Proliferation assay DLD1-WRN-KO (CellTiterGlo, off-target effects); assay type: cell-based; conditions: 96 hours, geometric mean of at least 2
Method in brief: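 DLD1 cells with CRISPR knockout of WRN were exposed overnight-seeded to eight 3-fold compound dilutions (0.1% DMSO) for 96 h at 37 °C. Viability was read as ATP by CellTiterGlo luminescence against a day-0 plate, giving GI50 and residual viability at top concentration.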

[1] = target: T1, WRN helicase (aa N517-P1238) (Homo sapiens, UniProt Q14191); test: WRN ATPase assay (DNA dependent ATP hydrolysis, ADP-Glo); assay type: biochemical; conditions: 3 hours pre-incubation, 300 micromolar ATP, FLAP26 DNA; geometric mean of at least 2
T1 construct: The core helicase motif of the WRN protein (aa N517-P1238) was produced for this assay; His (N); ZZ (N); 3C protease cleavage site (N); made in house; host or cells: Sf21 insect cells (baculovirus; virus and BIICs made in SF9)
T1 sequence (Q14191 517-1238): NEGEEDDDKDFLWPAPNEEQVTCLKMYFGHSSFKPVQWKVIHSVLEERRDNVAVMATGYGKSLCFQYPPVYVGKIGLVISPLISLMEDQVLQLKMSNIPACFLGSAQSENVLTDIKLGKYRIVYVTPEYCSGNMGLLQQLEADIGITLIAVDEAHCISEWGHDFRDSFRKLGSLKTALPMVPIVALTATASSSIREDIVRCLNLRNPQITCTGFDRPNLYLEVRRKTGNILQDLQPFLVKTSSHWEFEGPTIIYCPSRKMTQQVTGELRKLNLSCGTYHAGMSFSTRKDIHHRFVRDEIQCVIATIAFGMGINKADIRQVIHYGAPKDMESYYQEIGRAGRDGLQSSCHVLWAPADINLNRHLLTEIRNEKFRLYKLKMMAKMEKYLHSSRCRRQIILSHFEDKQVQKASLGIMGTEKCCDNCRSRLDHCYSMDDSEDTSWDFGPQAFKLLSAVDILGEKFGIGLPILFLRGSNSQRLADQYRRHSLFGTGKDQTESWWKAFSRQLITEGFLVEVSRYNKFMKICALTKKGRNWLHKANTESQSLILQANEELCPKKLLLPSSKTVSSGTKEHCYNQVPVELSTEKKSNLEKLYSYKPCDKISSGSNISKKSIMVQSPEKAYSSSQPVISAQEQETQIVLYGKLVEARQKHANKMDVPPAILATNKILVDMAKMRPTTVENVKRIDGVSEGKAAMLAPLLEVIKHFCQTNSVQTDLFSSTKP
Method in brief: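 DNA-dependent ATP hydrolysis detected as ADP by ADP-Glo luminescence, using 300 μM ATP, 0.2 nM FLAP26 substrate and 10 nM WRN aa N517-P1238 (Tris pH 7.5 buffer, 2 mM MgCl2, 50 mM NaCl). IC50s fitted from normalized duplicate half-log dilutions; reported as geometric means of at least 2 replicates.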

SMILES	GI50 (SW48 cells) [µM]	GI50 (DLD1-WRN-KO cells) [µM]	IC50 [1] [µM]
[2H]C([2H])(C(=O)Nc1ccc(C(F)(F)F)cc1)n1c(CC)c(N2CCN(C(C)=O)CC2)c(=O)n2nc(C3=CCOCC3)nc12 [Example 82, 2-(6-(4-acetylpiperazin-1-yl)-2-(3,6-dihydro-2H-pyran-4-yl)-5-ethyl-7-oxo-[1,2,4]triazolo[1,5-a]pyrimidin-4(7H)-yl)-N-(4-(trifluoromethyl)phenyl)acetamide-2,2-d2]	2	> 10	0.3
CC(=O)N1CCN(c2c(C)n(CC(=O)Nc3ccc(C(F)(F)F)cc3Br)c3nc(C4=CCOCC4)nn3c2=O)CC1 [Example 32, 2-(6-(4-acetylpiperazin-1-yl)-2-(3,6-dihydro-2H-pyran-4-yl)-5-methyl-7-oxo-[1,2,4]triazolo[1,5-a]pyrimidin-4(7H)-yl)-N-(2-bromo-4-(trifluoromethyl)phenyl)acetamide]	3	> 10	0.8
CCc1c(C2CCN(C(C)=O)CC2)c(=O)n2nc(C3=CCC(OC)CC3)nc2n1CC(=O)Nc1ccc(C(F)(F)F)cc1 (stereo not drawn) [Example 139, 2-(6-(1-acetylpiperidin-4-yl)-5-ethyl-2-(4-methoxycyclohex-1-en-1-yl)-7-oxo-[1,2,4]triazolo[1,5-a]pyrimidin-4(7H)-yl)-N-(4-(trifluoromethyl)phenyl)acetamide]	1	> 10	0.1
COC(=O)N1CC=C(c2nc3n(CC(=O)Nc4ccc(S(F)(F)(F)(F)F)cc4)c(C)c(N4CCN(C(C)=O)CC4)c(=O)n3n2)CC1 [Example 156, methyl 4-(6-(4-acetylpiperazin-1-yl)-5-methyl-7-oxo-4-(2-oxo-2-((4-(pentafluoro-16-sulfaneyl)phenyl)amino)ethyl)-4,7-dihydro-[1,2,4]triazolo[1,5-a]pyrimidin-2-yl)-3,6-dihydropyridine-1(2H)-carboxylate]	3	> 10	0.2
CCc1c(N2CCN(C(=O)c3nccc4cccc(O)c34)CC2)c(=O)n2nc(C3=CCOCC3)nc2n1CC(=O)Nc1ccc(C(F)(F)F)cc1C [Example 50, 2-(2-(3,6-dihydro-2H-pyran-4-yl)-5-ethyl-6-(4-(8-hydroxyisoquinoline-1-carbonyl)piperazin-1-yl)-7-oxo-[1,2,4]triazolo[1,5-a]pyrimidin-4(7H)-yl)-N-(2-methyl-4-(trifluoromethyl)phenyl)acetamide]	1	> 10	0.3

The next lines start with the values.

GI50 (SW48 cells) [µM]	GI50 (DLD1-WRN-KO cells) [µM]	IC50 [1] [µM]	SMILES
8	> 10	0.8	CC(=O)N1CCN(c2c(C)n(CC(=O)Nc3ccc(C(F)(F)F)cc3)c3nc(C4=COCCO4)nn3c2=O)CC1 [Example 104, 2-(6-(4-acetylpiperazin-1-yl)-2-(5,6-dihydro-1,4-dioxin-2-yl)-5-methyl-7-oxo-[1,2,4]triazolo[1,5-a]pyrimidin-4(7H)-yl)-N-(4-(trifluoromethyl)phenyl)acetamide]
6	> 10	2	COCC1CCN(c2nc3n(CC(=O)Nc4ccc(C(F)(F)F)cc4)c(C)c(N4CCN(C(C)=O)CC4)c(=O)n3n2)C1 (stereo not drawn) [Example 133, 2-(6-(4-acetylpiperazin-1-yl)-2-(3-(methoxymethyl)pyrrolidin-1-yl)-5-methyl-7-oxo-[1,2,4]triazolo[1,5-a]pyrimidin-4(7H)-yl)-N-(4-(trifluoromethyl)phenyl)acetamide]
5	> 10	0.3	CC(=O)N1CCN(c2c(C)n(CC(=O)Nc3ccc(C(F)(F)F)cc3)c3nc(N4CCC(N(C)CC(F)F)CC4)nn3c2=O)CC1 [Example 113, 2-(6-(4-acetylpiperazin-1-yl)-2-(4-((2,2-difluoroethyl)(methyl)amino)piperidin-1-yl)-5-methyl-7-oxo-[1,2,4]triazolo[1,5-a]pyrimidin-4(7H)-yl)-N-(4-(trifluoromethyl)phenyl)acetamide]
